{"source": "ChEMBL document CHEMBL4387741", "about": "“Optimization of novel reversible Bruton's tyrosine kinase inhibitors identified using Tethering-fragment-based screens” (Bioorg Med Chem, 2019)", "key": {"[1]": {"test": "Plasma clearance in Sprague-Dawley rat at 1 mg/kg, iv relative to hepatic blood flow", "format": "ADME, organism-based", "details": "in vivo"}, "[2]": {"tested_on": "Tyrosine-protein kinase ABL1 (Homo sapiens), P00519 [F317L]", "test": "Inhibition of human non-phosphorylated ABL1 F317L mutant (S229 to K512 residues) expressed in mammalian expression system at 1 uM by Kinomescan method relative to control"}, "[3]": {"target": "Bone morphogenetic protein receptor type-1B (Homo sapiens) (UniProt O00238)", "sequence (O00238 whole entry, the tested form may be a part)": "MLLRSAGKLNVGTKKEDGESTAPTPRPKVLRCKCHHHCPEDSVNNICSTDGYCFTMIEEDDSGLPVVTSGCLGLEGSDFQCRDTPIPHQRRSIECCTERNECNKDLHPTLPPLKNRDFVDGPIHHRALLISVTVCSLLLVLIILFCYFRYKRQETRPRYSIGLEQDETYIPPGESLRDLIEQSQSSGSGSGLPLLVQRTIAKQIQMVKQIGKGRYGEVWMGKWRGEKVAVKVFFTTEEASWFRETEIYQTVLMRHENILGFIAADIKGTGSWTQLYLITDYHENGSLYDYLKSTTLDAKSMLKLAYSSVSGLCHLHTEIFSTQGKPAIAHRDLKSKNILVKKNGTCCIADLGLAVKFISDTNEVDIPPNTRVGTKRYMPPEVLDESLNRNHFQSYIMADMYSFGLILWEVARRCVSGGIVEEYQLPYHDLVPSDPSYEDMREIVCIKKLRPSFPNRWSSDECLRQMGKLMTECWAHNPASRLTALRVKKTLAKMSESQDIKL", "test": "Inhibition of wild-type human partial length BMPR1B (D178 to L502 residues) expressed in mammalian expression system at 1 uM by Kinomescan method relative to control"}, "[4]": {"target": "Bone morphogenetic protein receptor type-2 (Homo sapiens) (UniProt Q13873)", "test": "Inhibition of wild-type human partial length BMPR2 (R179 to Q526 residues) expressed in mammalian expression system at 1 uM by Kinomescan method relative to control"}, "[5]": {"target": "Serine/threonine-protein kinase Chk2 (Homo sapiens) (UniProt O96017)", "test": "Inhibition of wild-type human partial length CHEK2 (S253 to E574 residues) expressed in bacterial expression system at 1 uM by Kinomescan method relative to control"}, "[6]": {"target": "Death-associated protein kinase 3 (Homo sapiens) (UniProt O43293)", "test": "Inhibition of wild-type human partial length DAPK3 (M1 to A277 residues) expressed in bacterial expression system at 1 uM by Kinomescan method relative to control"}, "[7]": {"tested_on": "Epidermal growth factor receptor (Homo sapiens), P00533 [UNDEFINED MUTATION]", "test": "Inhibition of human partial length EGFR E746-A750del mutant expressed in bacterial expression system at 1 uM by Kinomescan method relative to control"}, "[8]": {"target": "Ephrin type-B receptor 1 (Homo sapiens) (UniProt P54762)", "test": "Inhibition of wild-type human partial length EPHB1 (P589 to T911 residues) expressed in bacterial expression system at 1 uM by Kinomescan method relative to control"}, "[9]": {"target": "Homeodomain-interacting protein kinase 3 (Homo sapiens) (UniProt Q9H422)", "test": "Inhibition of wild-type human partial length HIPK3 (M153 to N562 residues) expressed in mammalian expression system at 1 uM by Kinomescan method relative to control"}, "[10]": {"target": "Interleukin-1 receptor-associated kinase 4 (Homo sapiens) (UniProt Q9NWZ3)", "test": "Inhibition of wild-type human partial length IRAK4 (M1 to S460 residues) expressed in mammalian expression system at 1 uM by Kinomescan method relative to control"}, "[11]": {"target": "Mitogen-activated protein kinase 9 (Homo sapiens) (UniProt P45984)", "test": "Inhibition of wild-type human full length JNK2 (M1 to Q382 residues) expressed in mammalian expression system at 1 uM by Kinomescan method relative to control"}, "[12]": {"target": "Serine/threonine-protein kinase 3 (Homo sapiens) (UniProt Q13188)", "sequence (Q13188 whole entry, the tested form may be a part)": "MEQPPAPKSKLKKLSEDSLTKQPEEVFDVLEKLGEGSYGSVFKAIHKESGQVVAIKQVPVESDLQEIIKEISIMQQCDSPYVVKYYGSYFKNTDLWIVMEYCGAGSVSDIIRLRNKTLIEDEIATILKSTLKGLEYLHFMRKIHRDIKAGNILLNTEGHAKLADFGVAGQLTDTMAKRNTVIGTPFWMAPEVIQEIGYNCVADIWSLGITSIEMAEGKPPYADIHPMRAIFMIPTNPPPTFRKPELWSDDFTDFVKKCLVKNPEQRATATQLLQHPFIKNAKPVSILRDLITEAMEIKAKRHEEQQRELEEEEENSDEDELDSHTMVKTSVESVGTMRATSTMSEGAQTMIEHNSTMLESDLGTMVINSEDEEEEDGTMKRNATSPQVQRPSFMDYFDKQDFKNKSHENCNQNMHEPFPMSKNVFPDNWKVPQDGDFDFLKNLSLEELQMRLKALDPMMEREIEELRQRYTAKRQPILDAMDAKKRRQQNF", "test": "Inhibition of wild-type human partial length MST2 (D17 to E318 residues) expressed in bacterial expression system at 1 uM by Kinomescan method relative to control"}, "[13]": {"target": "Cyclin-dependent kinase 2 homolog (Plasmodium falciparum (isolate 3D7)) (UniProt P61075)", "sequence (P61075 whole entry, the tested form may be a part)": "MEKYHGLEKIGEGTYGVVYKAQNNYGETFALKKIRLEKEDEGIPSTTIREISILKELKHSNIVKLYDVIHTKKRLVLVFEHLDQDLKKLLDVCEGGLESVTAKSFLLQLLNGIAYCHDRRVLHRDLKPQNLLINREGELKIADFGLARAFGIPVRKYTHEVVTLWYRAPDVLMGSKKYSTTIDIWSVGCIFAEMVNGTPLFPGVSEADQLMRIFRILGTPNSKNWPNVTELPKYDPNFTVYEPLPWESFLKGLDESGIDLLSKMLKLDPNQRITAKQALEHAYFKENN", "test": "Inhibition of wild-type Plasmodium falciparum full length PK5 (M1 to N288 residues) expressed in mammalian expression system at 1 uM by Kinomescan method relative to control"}, "[14]": {"target": "Dual serine/threonine and tyrosine protein kinase (Homo sapiens) (UniProt Q6XUX3)", "test": "Inhibition of wild-type human full length RIPK5 (M1 to T929 residues) expressed in mammalian expression system at 1 uM by Kinomescan method relative to control"}, "[15]": {"target": "Ribosomal protein S6 kinase alpha-3 (Homo sapiens) (UniProt P51812)", "test": "Inhibition of wild-type human partial length C-terminal RSK2 kinase domain 2 (V402 to S715 residues) expressed in mammalian expression system at 1 uM by Kinomescan method relative to control"}, "[16]": {"target": "Serine/threonine-protein kinase VRK2 (Homo sapiens) (UniProt Q86Y07)", "test": "Inhibition of wild-type human partial length VRK2 (M1 to T336 residues) expressed in mammalian expression system at 1 uM by Kinomescan method relative to control"}, "[17]": {"test": "Aqueous kinetic solubility of the compound at pH 6.8 by shake flask assay", "format": "physicochemical", "details": "read-out: Kinetic_solubility"}, "[18]": {"target": "Cyclin-dependent kinase-like 5 (Homo sapiens) (UniProt O76039)", "test": "Inhibition of wild-type human partial length CDKL5 (M1 to S337 residues) expressed in mammalian expression system at 10 uM by Kinomescan method relative to control"}, "[19]": {"target": "Macrophage colony-stimulating factor 1 receptor (Homo sapiens) (UniProt P07333)", "test": "Inhibition of wild-type human partial length CSF1R (I564 to S939 residues) expressed in bacterial expression system at 10 uM by Kinomescan method relative to control"}, "[20]": {"tested_on": "Epidermal growth factor receptor (Homo sapiens), P00533 [G719C]", "sequence (P00533 whole entry G719C, the tested form may be a part)": "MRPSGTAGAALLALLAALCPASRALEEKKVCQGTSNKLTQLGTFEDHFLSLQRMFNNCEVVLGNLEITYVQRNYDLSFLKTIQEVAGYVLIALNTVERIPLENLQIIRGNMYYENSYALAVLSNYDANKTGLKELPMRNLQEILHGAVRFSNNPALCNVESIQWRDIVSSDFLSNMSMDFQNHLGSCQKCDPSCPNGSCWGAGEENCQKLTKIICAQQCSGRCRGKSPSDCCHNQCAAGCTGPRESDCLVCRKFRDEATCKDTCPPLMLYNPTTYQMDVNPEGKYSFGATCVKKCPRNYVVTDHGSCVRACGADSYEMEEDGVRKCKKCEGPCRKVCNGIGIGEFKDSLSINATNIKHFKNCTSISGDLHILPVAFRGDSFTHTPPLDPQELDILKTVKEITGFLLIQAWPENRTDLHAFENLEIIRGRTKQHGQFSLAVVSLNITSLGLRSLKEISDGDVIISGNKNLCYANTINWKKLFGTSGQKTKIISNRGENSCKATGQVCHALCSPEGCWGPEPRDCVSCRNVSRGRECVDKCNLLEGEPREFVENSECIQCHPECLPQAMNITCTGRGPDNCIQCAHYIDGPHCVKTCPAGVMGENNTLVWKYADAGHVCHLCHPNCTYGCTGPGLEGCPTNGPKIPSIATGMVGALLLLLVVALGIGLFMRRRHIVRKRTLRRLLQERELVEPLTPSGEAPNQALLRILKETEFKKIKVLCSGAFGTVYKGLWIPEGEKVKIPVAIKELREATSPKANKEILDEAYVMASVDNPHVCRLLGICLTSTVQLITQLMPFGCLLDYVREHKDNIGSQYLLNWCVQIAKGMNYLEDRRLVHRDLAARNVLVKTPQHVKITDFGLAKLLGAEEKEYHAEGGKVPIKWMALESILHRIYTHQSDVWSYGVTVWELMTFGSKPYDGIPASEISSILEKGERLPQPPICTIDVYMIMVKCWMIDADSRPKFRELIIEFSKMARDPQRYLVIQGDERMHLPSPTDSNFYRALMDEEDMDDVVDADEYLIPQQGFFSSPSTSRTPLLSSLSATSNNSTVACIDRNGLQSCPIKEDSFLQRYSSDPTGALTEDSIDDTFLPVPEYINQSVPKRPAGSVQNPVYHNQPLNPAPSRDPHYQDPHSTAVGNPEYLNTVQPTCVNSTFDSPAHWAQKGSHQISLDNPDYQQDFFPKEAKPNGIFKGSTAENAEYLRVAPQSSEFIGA", "test": "Inhibition of human partial length EGFR G719C mutant (R669 to V1011 residues) expressed in bacterial expression system at 10 uM by Kinomescan method relative to control"}, "[21]": {"tested_on": "Fibroblast growth factor receptor 3 (Homo sapiens), P22607 [G697C]", "sequence (P22607 whole entry G697C, the tested form may be a part)": "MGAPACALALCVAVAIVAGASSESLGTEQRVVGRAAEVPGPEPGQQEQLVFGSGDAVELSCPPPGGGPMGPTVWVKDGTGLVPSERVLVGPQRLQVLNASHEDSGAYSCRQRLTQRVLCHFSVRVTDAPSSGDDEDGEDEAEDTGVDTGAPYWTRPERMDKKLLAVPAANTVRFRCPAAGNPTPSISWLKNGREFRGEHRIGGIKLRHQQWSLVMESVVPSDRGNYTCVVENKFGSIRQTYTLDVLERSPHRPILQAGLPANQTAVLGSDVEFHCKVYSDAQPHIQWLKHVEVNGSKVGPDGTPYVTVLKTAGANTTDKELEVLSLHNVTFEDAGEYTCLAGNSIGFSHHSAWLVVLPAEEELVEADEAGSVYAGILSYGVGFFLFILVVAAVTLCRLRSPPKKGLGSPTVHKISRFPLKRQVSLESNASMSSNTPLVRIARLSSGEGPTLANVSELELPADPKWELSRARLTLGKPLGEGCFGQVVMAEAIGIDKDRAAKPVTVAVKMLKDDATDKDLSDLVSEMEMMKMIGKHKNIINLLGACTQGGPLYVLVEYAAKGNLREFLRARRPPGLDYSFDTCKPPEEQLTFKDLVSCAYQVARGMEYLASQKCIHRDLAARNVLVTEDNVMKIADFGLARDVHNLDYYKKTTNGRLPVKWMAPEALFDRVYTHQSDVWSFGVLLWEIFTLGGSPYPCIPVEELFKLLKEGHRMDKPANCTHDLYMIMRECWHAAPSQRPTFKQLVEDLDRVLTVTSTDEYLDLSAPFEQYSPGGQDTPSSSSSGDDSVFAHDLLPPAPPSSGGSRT", "test": "Inhibition of human partial length FGFR3 G697C mutant (R442 to S771 residues) expressed in bacterial expression system at 10 uM by Kinomescan method relative to control"}, "[22]": {"target": "Serine/threonine-protein kinase 10 (Homo sapiens) (UniProt O94804)", "sequence (O94804 whole entry, looked up, the tested form may be a part)": "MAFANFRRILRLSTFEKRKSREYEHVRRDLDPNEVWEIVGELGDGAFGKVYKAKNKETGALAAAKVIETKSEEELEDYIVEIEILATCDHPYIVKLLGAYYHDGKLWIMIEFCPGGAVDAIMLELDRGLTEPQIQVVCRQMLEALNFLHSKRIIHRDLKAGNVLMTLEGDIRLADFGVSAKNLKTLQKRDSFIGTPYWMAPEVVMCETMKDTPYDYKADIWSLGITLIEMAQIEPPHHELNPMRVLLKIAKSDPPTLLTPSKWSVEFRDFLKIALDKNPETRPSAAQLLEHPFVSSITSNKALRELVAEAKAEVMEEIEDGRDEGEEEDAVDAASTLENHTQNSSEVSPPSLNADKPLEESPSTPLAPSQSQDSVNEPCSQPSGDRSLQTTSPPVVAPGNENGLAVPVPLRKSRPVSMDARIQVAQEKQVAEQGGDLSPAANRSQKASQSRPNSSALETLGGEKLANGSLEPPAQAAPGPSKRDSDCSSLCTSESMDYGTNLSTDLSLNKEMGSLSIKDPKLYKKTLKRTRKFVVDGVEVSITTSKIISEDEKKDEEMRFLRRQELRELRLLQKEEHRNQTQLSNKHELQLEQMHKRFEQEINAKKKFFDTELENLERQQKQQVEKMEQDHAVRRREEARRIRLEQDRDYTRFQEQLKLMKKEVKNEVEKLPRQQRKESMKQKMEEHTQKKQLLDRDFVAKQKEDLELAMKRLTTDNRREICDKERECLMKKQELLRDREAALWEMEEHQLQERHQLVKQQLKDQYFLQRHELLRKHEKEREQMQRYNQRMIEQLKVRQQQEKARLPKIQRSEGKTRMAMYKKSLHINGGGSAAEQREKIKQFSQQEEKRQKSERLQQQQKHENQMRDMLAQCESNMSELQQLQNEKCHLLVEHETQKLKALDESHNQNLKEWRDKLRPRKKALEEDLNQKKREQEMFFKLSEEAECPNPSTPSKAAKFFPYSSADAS", "test": "Inhibition of wild-type human partial length LOK (E16 to V314 residues) expressed in bacterial expression system at 10 uM by Kinomescan method relative to control"}, "[23]": {"target": "MAP/microtubule affinity-regulating kinase 4 (Homo sapiens) (UniProt Q96L34)", "test": "Inhibition of wild-type human partial length MARK4 (K29 to G340 residues) expressed in bacterial expression system at 10 uM by Kinomescan method relative to control"}, "[24]": {"target": "Serine/threonine-protein kinase RIO1 (Homo sapiens) (UniProt Q9BRS2)", "test": "Inhibition of wild-type human full length RIOK1 (M1 to K568 residues) expressed in bacterial expression system at 10 uM by Kinomescan method relative to control"}, "[25]": {"target": "Receptor-interacting serine/threonine-protein kinase 1 (Homo sapiens) (UniProt Q13546)", "sequence (Q13546 whole entry, the tested form may be a part)": "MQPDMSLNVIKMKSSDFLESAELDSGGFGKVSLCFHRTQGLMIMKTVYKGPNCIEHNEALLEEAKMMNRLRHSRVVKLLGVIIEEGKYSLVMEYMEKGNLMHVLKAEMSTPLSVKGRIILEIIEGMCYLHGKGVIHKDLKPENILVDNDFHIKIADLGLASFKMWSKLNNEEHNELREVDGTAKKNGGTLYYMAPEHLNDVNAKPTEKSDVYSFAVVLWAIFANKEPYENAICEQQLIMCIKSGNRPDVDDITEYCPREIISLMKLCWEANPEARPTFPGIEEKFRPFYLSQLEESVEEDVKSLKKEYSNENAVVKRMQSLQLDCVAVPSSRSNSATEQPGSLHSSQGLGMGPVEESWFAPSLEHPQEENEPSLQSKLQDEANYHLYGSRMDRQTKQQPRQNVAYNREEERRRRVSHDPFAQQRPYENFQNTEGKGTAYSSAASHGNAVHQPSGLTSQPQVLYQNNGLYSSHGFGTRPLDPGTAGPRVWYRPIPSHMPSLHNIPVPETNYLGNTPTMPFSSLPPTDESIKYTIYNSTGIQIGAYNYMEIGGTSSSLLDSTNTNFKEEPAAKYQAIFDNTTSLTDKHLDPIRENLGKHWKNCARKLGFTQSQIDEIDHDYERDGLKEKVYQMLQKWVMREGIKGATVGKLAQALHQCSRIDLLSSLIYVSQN", "test": "Inhibition of wild-type human partial length RIPK1 (M1 to K305 residues) expressed in bacterial expression system at 10 uM by Kinomescan method relative to control"}, "[26]": {"target": "Ribosomal protein S6 kinase alpha-1 (Homo sapiens) (UniProt Q15418)", "test": "Inhibition of wild-type human partial length N-terminal RSK1 Kinase domain 1 (M1 to E388 residues) expressed in bacterial expression system at 10 uM by Kinomescan method relative to control"}, "[27]": {"target": "Serine/threonine-protein kinase WNK2 (Homo sapiens) (UniProt Q9Y3S1)", "test": "Inhibition of wild-type human partial length WNK2 (V47 to D482 residues) expressed in mammalian expression system at 10 uM by Kinomescan method relative to control"}, "[28]": {"target": "Serine/threonine-protein kinase 32B (Homo sapiens) (UniProt Q9NY57)", "test": "Inhibition of wild-type human full length YANK2 (M1 to S414 residues) expressed in bacterial expression system at 10 uM by Kinomescan method relative to control"}}, "data": [{"smiles": "O=C(Nc1cccc([C@@H]2CN(c3ncnc4[nH]ccc34)CCN2CCO)c1)Nc1c(F)cccc1N1CCCC1", "values": [{"measurement": "CL", "setting": "[1]", "value": 11, "unit": "%"}, {"measurement": "inhibition", "setting": "[2]", "value": 100, "unit": "%"}, {"measurement": "inhibition", "setting": "[3]", "value": 63, "unit": "%"}, {"measurement": "inhibition", "setting": "[4]", "value": 91, "unit": "%"}, {"measurement": "inhibition", "setting": "[5]", "value": 69, "unit": "%"}, {"measurement": "inhibition", "setting": "[6]", "value": 5.2, "unit": "%"}, {"measurement": "inhibition", "setting": "[7]", "value": 97, "unit": "%"}, {"measurement": "inhibition", "setting": "[8]", "value": 97, "unit": "%"}, {"measurement": "inhibition", "setting": "[9]", "value": 86, "unit": "%"}, {"measurement": "inhibition", "setting": "[10]", "value": 91, "unit": "%"}, {"measurement": "inhibition", "setting": "[11]", "value": 100, "unit": "%"}, {"measurement": "inhibition", "setting": "[12]", "value": 64, "unit": "%"}, {"measurement": "inhibition", "setting": "[13]", "value": 100, "unit": "%"}, {"measurement": "inhibition", "setting": "[14]", "value": 74, "unit": "%"}, {"measurement": "inhibition", "setting": "[15]", "value": 100, "unit": "%"}, {"measurement": "inhibition", "setting": "[16]", "value": 100, "unit": "%"}, {"measurement": "solubility kinetic", "setting": "[17]", "value": 8, "unit": "µg/mL"}]}, {"smiles": "O=C(Nc1cccc([C@H]2CCCN(c3ncnc4[nH]ccc34)C2)c1)Nc1ccccc1N1CCCC1", "values": [{"measurement": "inhibition", "setting": "[18]", "value": 96, "unit": "%"}, {"measurement": "inhibition", "setting": "[19]", "value": 20, "unit": "%"}, {"measurement": "inhibition", "setting": "[20]", "value": 86, "unit": "%"}, {"measurement": "inhibition", "setting": "[21]", "value": 53, "unit": "%"}, {"measurement": "inhibition", "setting": "[22]", "value": 0.45, "unit": "%"}, {"measurement": "inhibition", "setting": "[23]", "value": 87, "unit": "%"}, {"measurement": "inhibition", "setting": "[24]", "value": 0, "unit": "%"}, {"measurement": "inhibition", "setting": "[25]", "value": 100, "unit": "%"}, {"measurement": "inhibition", "setting": "[26]", "value": 42, "unit": "%"}, {"measurement": "inhibition", "setting": "[27]", "value": 100, "unit": "%"}, {"measurement": "inhibition", "setting": "[28]", "value": 100, "unit": "%"}]}]}
